Data: patent US20240415914A1, “Water Dispersible Cannabinoid Compositions” (priority 2021, published 2024)
Like-named read-outs stand apart in the source and are kept apart here.

What was measured:
[1] = assay type: physicochemical; conditions: stored at room temperature (21-25° C.)
Protocol: At each time period, 0.05 g of powder was dissolved in 10 ml-15 of ethanol, diluted to fall within the analytical range, and injected into the LCMSMS for analysis.

[2] = Stability of cannabinoid and Vitamin E components of Beverage 2 (AB Red) stored at 8° C. and 21-25° C., LCMSMS over 570 days

In the case of `CC(=O)Oc1c(C)c(C)c2c(c1C)CCC(C)(CCC[C@H](C)CCC[C@H](C)CCCC(C)C)O2` (stereo partly drawn) [α-Tocopheryl acetate], the “Stability in Powder Concentrate (content by LCMSMS)” value (“Stability in Powder Concentrate” for short) ([1]; day 0) is reported as 2.15 mg/g powder, the “Stability in Powder Concentrate” value ([1]; day 1) is reported as 2.19 mg/g powder and the “Stability in Powder Concentrate” value ([1]; day 2) is reported as 2.11 mg/g powder. For the same compound, the “Stability in Powder Concentrate” value ([1]; day 3) was 2.18 mg/g powder, the “Stability in Powder Concentrate” value ([1]; day 5) was 2.24 mg/g powder and the “Stability in Powder Concentrate” value ([1]; day 8) was 2.23 mg/g powder. For the same compound, the “Stability in Powder Concentrate” value ([1]; day 9) was 2.09 mg/g powder, the “Stability in Powder Concentrate” value ([1]; day 10) was 2.09 mg/g powder and the “Stability in Powder Concentrate” value ([1]; day 11) was 2.20 mg/g powder. The “Stability in Powder Concentrate” value ([1]; day 12) was 2.17 mg/g powder, the “Stability in Powder Concentrate” value ([1]; day 15) was 2.24 mg/g powder and the “Stability in Powder Concentrate” value ([1]; day 16) was 2.15 mg/g powder. The “Stability in Powder Concentrate” value ([1]; day 17) was 2.13 mg/g powder, the “Stability in Powder Concentrate” value ([1]; day 18) was 2.10 mg/g powder and the “Stability in Powder Concentrate” value ([1]; day 19) was 2.21 mg/g powder. For the same compound, the “Stability in Powder Concentrate” value ([1]; day 22) was 2.11 mg/g powder, the “Stability in Powder Concentrate” value ([1]; day 23) was 2.16 mg/g powder and the “Stability in Powder Concentrate” value ([1]; day 24) was 2.09 mg/g powder. The “Stability in Powder Concentrate” value ([1]; day 25) was 2.24 mg/g powder, the “Stability in Powder Concentrate” value ([1]; day 26) was 2.10 mg/g powder and the “Stability in Powder Concentrate” value ([1]; day 29) was 2.21 mg/g powder. For the same compound, the “Stability in Powder Concentrate” value ([1]; day 30) was 2.08 mg/g powder, the “Stability in Powder Concentrate” value ([1]; day 60) was 2.15 mg/g powder and the “Stability in Powder Concentrate” value ([1]; day 90) was 2.24 mg/g powder. The “Stability in Powder Concentrate” value ([1]; day 120) was 2.17 mg/g powder, the “Stability in Powder Concentrate” value ([1]; day 150) was 2.18 mg/g powder and the “Stability in Powder Concentrate” value ([1]; day 180) was 2.20 mg/g powder. For the same compound, the “Stability in Powder Concentrate” value ([1]; day 210) was 2.15 mg/g powder, the “Stability in Powder Concentrate” value ([1]; day 240) was 2.23 mg/g powder and the “Stability in Powder Concentrate” value ([1]; day 270) was 2.13 mg/g powder. For the same compound, the “Stability in Powder Concentrate” value ([1]; day 300) was 2.09 mg/g powder, the “Stability in Powder Concentrate” value ([1]; day 330) was 2.15 mg/g powder and the “Stability in Powder Concentrate” value ([1]; day 360) was 2.12 mg/g powder. For the same compound, the “Stability in Powder Concentrate” value ([1]; day 390) was 2.21 mg/g powder, the “Stability in Powder Concentrate” value ([1]; day 420) was 2.21 mg/g powder and the “Stability in Powder Concentrate” value ([1]; day 450) was 2.07 mg/g powder. For the same compound, the “Stability in Powder Concentrate” value ([1]; day 480) was 2.10 mg/g powder, the “Stability in Powder Concentrate” value ([1]; day 510) was 2.15 mg/g powder and the “Stability in Powder Concentrate” value ([1]; day 540) was 2.21 mg/g powder. For the same compound, the “Stability in Powder Concentrate” value ([1]; day 570) was 2.13 mg/g powder, the “Stability of Vitamin Es in AB Red” value ([2]; 8° C., 0 days) was 12.5 µg/mL and the “Stability of Vitamin Es in AB Red” value ([2]; 8° C., 1 days) was 11.6 µg/mL. The “Stability of Vitamin Es in AB Red” value ([2]; 8° C., 2 days) was 11.5 µg/mL, the “Stability of Vitamin Es in AB Red” value ([2]; 8° C., 3 days) was 11.6 µg/mL and the “Stability of Vitamin Es in AB Red” value ([2]; 8° C., 5 days) was 12.3 µg/mL. For the same compound, the “Stability of Vitamin Es in AB Red” value ([2]; 8° C., 8 days) was 12.2 µg/mL, the “Stability of Vitamin Es in AB Red” value ([2]; 8° C., 9 days) was 12.1 µg/mL and the “Stability of Vitamin Es in AB Red” value ([2]; 8° C., 10 days) was 12.6 µg/mL. For the same compound, the “Stability of Vitamin Es in AB Red” value ([2]; 8° C., 11 days) was 11.9 µg/mL, the “Stability of Vitamin Es in AB Red” value ([2]; 8° C., 12 days) was 12.4 µg/mL and the “Stability of Vitamin Es in AB Red” value ([2]; 8° C., 15 days) was 12.0 µg/mL. The “Stability of Vitamin Es in AB Red” value ([2]; 8° C., 16 days) was 11.5 µg/mL, the “Stability of Vitamin Es in AB Red” value ([2]; 8° C., 17 days) was 11.8 µg/mL and the “Stability of Vitamin Es in AB Red” value ([2]; 8° C., 18 days) was 12.5 µg/mL. For the same compound, the “Stability of Vitamin Es in AB Red” value ([2]; 8° C., 19 days) was 12.5 µg/mL, the “Stability of Vitamin Es in AB Red” value ([2]; 8° C., 22 days) was 12.5 µg/mL and the “Stability of Vitamin Es in AB Red” value ([2]; 8° C., 23 days) was 11.9 µg/mL. For the same compound, the “Stability of Vitamin Es in AB Red” value ([2]; 8° C., 24 days) was 12.6 µg/mL, the “Stability of Vitamin Es in AB Red” value ([2]; 8° C., 25 days) was 12.3 µg/mL and the “Stability of Vitamin Es in AB Red” value ([2]; 8° C., 26 days) was 11.6 µg/mL. For the same compound, the “Stability of Vitamin Es in AB Red” value ([2]; 8° C., 29 days) was 11.7 µg/mL, the “Stability of Vitamin Es in AB Red” value ([2]; 8° C., 30 days) was 12.1 µg/mL and the “Stability of Vitamin Es in AB Red” value ([2]; 8° C., 60 days) was 11.4 µg/mL. The “Stability of Vitamin Es in AB Red” value ([2]; 8° C., 90 days) was 11.6 µg/mL, the “Stability of Vitamin Es in AB Red” value ([2]; 8° C., 120 days) was 11.7 µg/mL and the “Stability of Vitamin Es in AB Red” value ([2]; 8° C., 150 days) was 12.3 µg/mL. For the same compound, the “Stability of Vitamin Es in AB Red” value ([2]; 8° C., 180 days) was 12.6 µg/mL, the “Stability of Vitamin Es in AB Red” value ([2]; 8° C., 210 days) was 11.8 µg/mL and the “Stability of Vitamin Es in AB Red” value ([2]; 8° C., 240 days) was 11.2 µg/mL. For the same compound, the “Stability of Vitamin Es in AB Red” value ([2]; 8° C., 270 days) was 11.6 µg/mL, the “Stability of Vitamin Es in AB Red” value ([2]; 8° C., 300 days) was 11.2 µg/mL and the “Stability of Vitamin Es in AB Red” value ([2]; 8° C., 330 days) was 11.3 µg/mL. The “Stability of Vitamin Es in AB Red” value ([2]; 8° C., 390 days) was 11.4 µg/mL, the “Stability of Vitamin Es in AB Red” value ([2]; 8° C., 420 days) was 11.2 µg/mL and the “Stability of Vitamin Es in AB Red” value ([2]; 8° C., 450 days) was 11.4 µg/mL. For the same compound, the “Stability of Vitamin Es in AB Red” value ([2]; 8° C., 480 days) was 10.7 µg/mL, the “Stability of Vitamin Es in AB Red” value ([2]; 8° C., 510 days) was 10.6 µg/mL and the “Stability of Vitamin Es in AB Red” value ([2]; 8° C., 540 days) was 10.8 µg/mL. The “Stability of Vitamin Es in AB Red” value ([2]; 8° C., 570 days) was 10.8 µg/mL, the “Stability of Vitamin Es in AB Red” value ([2]; 21-25° C., 0 days) was 12.5 µg/mL and the “Stability of Vitamin Es in AB Red” value ([2]; 21-25° C., 1 days) was 12.1 µg/mL. The “Stability of Vitamin Es in AB Red” value ([2]; 21-25° C., 2 days) was 12.5 µg/mL, the “Stability of Vitamin Es in AB Red” value ([2]; 21-25° C., 3 days) was 11.7 µg/mL and the “Stability of Vitamin Es in AB Red” value ([2]; 21-25° C., 5 days) was 12.2 µg/mL. For the same compound, the “Stability of Vitamin Es in AB Red” value ([2]; 21-25° C., 8 days) was 11.4 µg/mL, the “Stability of Vitamin Es in AB Red” value ([2]; 21-25° C., 9 days) was 11.6 µg/mL and the “Stability of Vitamin Es in AB Red” value ([2]; 21-25° C., 10 days) was 12.5 µg/mL. The “Stability of Vitamin Es in AB Red” value ([2]; 21-25° C., 11 days) was 12.3 µg/mL, the “Stability of Vitamin Es in AB Red” value ([2]; 21-25° C., 12 days) was 12.3 µg/mL and the “Stability of Vitamin Es in AB Red” value ([2]; 21-25° C., 15 days) was 12.1 µg/mL. The “Stability of Vitamin Es in AB Red” value ([2]; 21-25° C., 16 days) was 12.1 µg/mL, the “Stability of Vitamin Es in AB Red” value ([2]; 21-25° C., 17 days) was 11.3 µg/mL and the “Stability of Vitamin Es in AB Red” value ([2]; 21-25° C., 18 days) was 12.0 µg/mL. The “Stability of Vitamin Es in AB Red” value ([2]; 21-25° C., 19 days) was 12.0 µg/mL, the “Stability of Vitamin Es in AB Red” value ([2]; 21-25° C., 22 days) was 12.1 µg/mL and the “Stability of Vitamin Es in AB Red” value ([2]; 21-25° C., 23 days) was 11.7 µg/mL. For the same compound, the “Stability of Vitamin Es in AB Red” value ([2]; 21-25° C., 24 days) was 11.5 µg/mL, the “Stability of Vitamin Es in AB Red” value ([2]; 21-25° C., 25 days) was 12.4 µg/mL and the “Stability of Vitamin Es in AB Red” value ([2]; 21-25° C., 26 days) was 12.0 µg/mL. For the same compound, the “Stability of Vitamin Es in AB Red” value ([2]; 21-25° C., 29 days) was 11.9 µg/mL, the “Stability of Vitamin Es in AB Red” value ([2]; 21-25° C., 30 days) was 12.6 µg/mL and the “Stability of Vitamin Es in AB Red” value ([2]; 21-25° C., 60 days) was 11.6 µg/mL. The “Stability of Vitamin Es in AB Red” value ([2]; 21-25° C., 90 days) was 12.3 µg/mL, the “Stability of Vitamin Es in AB Red” value ([2]; 21-25° C., 120 days) was 12.3 µg/mL and the “Stability of Vitamin Es in AB Red” value ([2]; 21-25° C., 150 days) was 11.4 µg/mL. For the same compound, the “Stability of Vitamin Es in AB Red” value ([2]; 21-25° C., 180 days) was 12.0 µg/mL, the “Stability of Vitamin Es in AB Red” value ([2]; 21-25° C., 210 days) was 11.6 µg/mL and the “Stability of Vitamin Es in AB Red” value ([2]; 21-25° C., 240 days) was 11.3 µg/mL. The “Stability of Vitamin Es in AB Red” value ([2]; 21-25° C., 270 days) was 11.4 µg/mL, the “Stability of Vitamin Es in AB Red” value ([2]; 21-25° C., 300 days) was 11.2 µg/mL and the “Stability of Vitamin Es in AB Red” value ([2]; 21-25° C., 330 days) was 11.6 µg/mL. For the same compound, the “Stability of Vitamin Es in AB Red” value ([2]; 21-25° C., 390 days) was 11.3 µg/mL, the “Stability of Vitamin Es in AB Red” value ([2]; 21-25° C., 420 days) was 11.3 µg/mL and the “Stability of Vitamin Es in AB Red” value ([2]; 21-25° C., 450 days) was 11.2 µg/mL. For the same compound, the “Stability of Vitamin Es in AB Red” value ([2]; 21-25° C., 480 days) was 10.4 µg/mL, the “Stability of Vitamin Es in AB Red” value ([2]; 21-25° C., 510 days) was 10.4 µg/mL and the “Stability of Vitamin Es in AB Red” value ([2]; 21-25° C., 540 days) was 10.6 µg/mL. For the same compound, the “Stability of Vitamin Es in AB Red” value ([2]; 21-25° C., 570 days) was 10.6 µg/mL.
